# Legend:
# [1] = test system: RAGE-mediated transport of Aβ40 across the BBB; assay: Arterial vascular brain perfusion: transport of 125I-Aβ40 across the BBB in APPsw+/− mice; type: in vivo; details: Mus musculus, read-out: inhibition of Aβ transport across the BBB
# Description: The statistical significance of differences is shown. Data are mean±s.e.m., n=3-4 per group.
# An arterial vascular brain perfusion technique (LaRue et al., 2004) was used to determine whether FPS2 blocks RAGE-mediated transport of circulating ^125I-labeled Aβ40 across the BBB in 4-6 month old APPsw^+/− mice. We and others have reported that expression of RAGE in brain microvessels in these mice is increased by about 5-fold compared to the littermate controls (Deane et al., 2003; Donahue et al., 2004).
# [2] = test system: RAGE-transfected CHO cells; assay: NF-κB activation (translocation) in RAGE-transfected CHO cells; type: cell-based; details: 1 μM Aβ40; FPS2 at 50 nM or 500 nM
# APPsw+/− mice = assay: CBF response to brain activation (whisker stimulation), chronic FPS2 treatment of APPsw+/− mice; type: in vivo; details: 1 mg/kg per day i.p. for two months from 8 months of age
# Experimental: (A) Percent increase in cerebral blood flow (CBF) in response to brain activation in mice treated with vehicle (open bar) or FPS2 (closed bar). (B-C) novel object location (B) and novel object recognition (C) expressed as percent exploratory preference in APPsw^+/− mice treated with vehicle (open bar) or FPS2 (closed bar). FPS2 (1 mg/kg per day) was intraperitoneally administered for two months beginning at the age of 8 months old mice. Values are means±s.e.m, n=5-6 per group.
# APPsw^+/− mice were treated with FPS2 (1 mg/kg) or with vehicle daily by intraperitoneal injection for two months starting at 8 months old. At the end of the treatment period functional changes in cerebral blood flow (CBF) to brain activation, and memory tests were determined. Brain and plasma Aβ levels were also determined in FPS2 and vehicle treated mice. […]
# Compounds were synthesized in parallel using semiautomated chemical reactions. […] Purity was assessed by reverse-phase gradient HPLC. […] After two months of treatment, (i) the cerebral blood flow response to brain activation (whisker stimulation) was measured and (ii) behavioral tests including operant learning, novel object location (NOL), and novel object recognition (NOR) were performed. After these functional tests, the mice were sacrificed and their brains analyzed for Aβ40, Aβ42, and amyloid levels. • CBF response to brain activation. […]
# RAGE = target: T1, RAGE (Homo sapiens, UniProt Q15109); assay: 125I-Aβ40 specific binding on RAGE-transfected CHO cells at 4° C., competitive inhibition
# T1 construct: expressed in transfected cells; host or cells: Chinese hamster ovary (CHO) cells
# Description: Data are mean±s.e.m., n=3 per group.
# All three are tertiary amides substituted with a large, hydrophobic hydrocarbon moiety and a monosubstituted aromatic moiety. Linkage to the monosubstituted aromatic is either direct (FPS2) or via an alkyl (FPS1) or heteroaromatic (FPS3) spacer. Two of the compounds also feature a highly electron-poor substituted benzene ring (3-nitro, 4-chloro for FPS1; 3,5-dinitro for FPS2).
# T1 sequence (Q15109 23-404): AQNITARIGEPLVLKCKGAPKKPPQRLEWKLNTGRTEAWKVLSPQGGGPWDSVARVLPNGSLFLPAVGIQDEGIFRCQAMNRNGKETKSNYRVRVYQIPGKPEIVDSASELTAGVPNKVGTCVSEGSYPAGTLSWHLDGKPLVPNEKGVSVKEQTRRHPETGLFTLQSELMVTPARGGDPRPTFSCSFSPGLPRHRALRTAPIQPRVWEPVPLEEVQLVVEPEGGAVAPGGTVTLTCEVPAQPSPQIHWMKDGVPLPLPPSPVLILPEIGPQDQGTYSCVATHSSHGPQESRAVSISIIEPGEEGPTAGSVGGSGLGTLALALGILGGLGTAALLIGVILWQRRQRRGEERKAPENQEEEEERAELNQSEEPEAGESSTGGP
smiles,measurement,setting,value
"CC(CC(=O)NCCCN(C(=O)c1cc([N+](=O)[O-])cc([N+](=O)[O-])c1)c1ccccc1)CC(C)(C)C (centres unmarked) [FPS2, 3,5-dinitro-N-phenyl-N-[3-[(3,5,5-trimethyl-1-oxohexyl)amino]propyl]-(9Cl)-benzamide]",inhibition at 4.8 µg/mL,[1],100%
same,NF-κB activation,[2],inhibited
same,increase of CBF during brain activation compared to vehicle,APPsw+/− mice,about 50%
same,"Ki/Kd ratio (Ki compound's inhibitory constant, Kd Aβ-RAGE binding constant)",RAGE,0.45
same,inhibitory constant (Ki) of Aβ-RAGE binding,RAGE; competitive,low
